Laboratory results from patent US20120258940A1, “METHOD FOR TREATING HAEMATOLOGICAL CANCERS” (priority 2009, published 2012).

Assays:
Format in all cases: cell-based
[1] = system: multiple myeloma cell line OPM-2; assay: Cell viability (CellTiter GLO), FGFR inhibitor + glucocorticoid combination, OPM-2; details: for CI of Cpd. + 100 nM Dex: 72 hours; for Synergy Score: Loewe Additivity model
Procedure: (§1) Cell viability was measured by CellTiter GLO. For the combination treatments in FIGS. 1 and 2, the Y axes were cell viability was normalized to the wells treated with dexamethasone alone.
(§2) All FGFR inhibitors were desolved in DMSO as a 10 mM stock. Serial dilutions, as indicated in each figure, were made as 3× solutions in culture medium before adding to the cell cultures. Dexamethasone and halometasone were dissolved in 100% ethanol as a 10 millimol master stock. Serial dilutions, as indicated in each figure, were made as 3× solutions in culture medium. Cell lines, cell culture and treatment:
(§3) KMS-11 and OPM-2 cell lines can be purchased from HSRRB (Japan) and DSMZ (Germany), respectively. Early passage KMS-11 and OPM-2 cell lines were cultured in RPMI-1640 (ATCC Catalog#30-2001) supplemented with 10% FBS for 1 or 2 passages before treatment. Twenty thousand cells were seeded in each well of a 96-well plate and grew for 24 hours. Cells were then treated in triplicate with vehicle, an FGFR inhibitor (Compound A, B), a glucocorticoid (Dexamethasone or halometasone) alone or a combination at indicated concentrations in 5% CO2 at 37 C for 72 hours. Viability was determined by CellTiter GLO (Promega, Cat#G755B) using identical method as described by the manufacturer. Data analysis:
(§4) Raw CellTiter GLO relative […] unit (RFU) values were acquired using a microplate reader (PerkinElmer Precisely, Perkin Elmer Life and Analytical Sciences). Data analysis was performed using the Chalice software developed by CombinatoRx (Zalicus Inc., Cambridge, Mass., USA). Specifically, the Loewe Additivity (ADD) model was used as the combination reference in the EXAMPLES.

[2] = system: multiple myeloma cell line KMS-11; assay: Cell viability (CellTiter GLO), FGFR inhibitor + glucocorticoid combination, KMS-11; details: for CI of Cpd. + 100 nM Dex: 72 hours; for Synergy Score: Loewe Additivity model
Procedure: as §1, §2, §3, §4

[3] = system: multiple myeloma cell lines; assay: Inhibition of proliferation of multiple myeloma cell lines by combinations (cell line not specified); details: with Dexamethasone
Procedure: as §2, §3
Raw CellTiter GLO relative […] unit (RFU) values were acquired using a microplate reader (PerkinElmer Precisely, Perkin Elmer Life and Analytical Sciences). Data analysis was performed using the Chalice software developed by CombinatoRx (Zalicus Inc., Cambridge, Mass., USA). […]

[4] = Cpd. 0.0001 nM + 100 nM dexamethasone
[5] = Cpd. 0.001 nM + 100 nM dexamethasone
[6] = Cpd. 0.01 nM + 100 nM dexamethasone
[7] = Cpd. 0.1 nM + 100 nM dexamethasone
[8] = Cpd. 1 nM + 100 nM dexamethasone
[9] = Cpd. 10 nM + 100 nM dexamethasone
[10] = Cpd. 100 nM + 100 nM dexamethasone
[11] = Cpd. 1000 nM + 100 nM dexamethasone
[12] = Cpd. 10000 nM + 100 nM dexamethasone
[13] = in combination with Dexamethasone

## CN1CCN(c2ccc3nc(-c4c(N)c5c(F)cccc5[nH]c4=O)[nH]c3c2)CC1 [Compound B, 4-amino-5-fluoro-3-[6-(4-methylpiperazin-yl)-1H-benzimidazol-2-yl]quinolin-2(1H)-one]
[1]; [4]
  CI of Cpd. + 100 nM Dex: 1.64E+00
[1]; [5]
  CI of Cpd. + 100 nM Dex: 1.38E+00
[1]; [6]
  CI of Cpd. + 100 nM Dex: 1.17E+00
[1]; [7]
  CI of Cpd. + 100 nM Dex: 1.10E+00
[1]; [8]
  CI of Cpd. + 100 nM Dex: 1.00E+00
[1]; [9]
  CI of Cpd. + 100 nM Dex: 7.94E−01
[1]; [10]
  CI of Cpd. + 100 nM Dex: 1.86E−01
[1]; [11]
  CI of Cpd. + 100 nM Dex: 5.80E−02
[1]; [12]
  CI of Cpd. + 100 nM Dex: 1.00E−03
[1]; [13]
  Chemical 1 concentration in the combination at 50% growth inhibition: B (1.8) mM
  Combination Index (CI) at 50% inhibition: 0.350 ± 0.010
  Synergy Score: 10
[1]; in combination with Sicorten
  Chemical 1 concentration in the combination at 50% growth inhibition: B (10) mM
  Combination Index (CI) at 50% inhibition: 0.281 ± 0.005
  Synergy call: Strong
  Synergy Score: 14
[1]; with Sicorten
  Combination effect on cell viability (figure legend): synergistic effect
[1]; with dexamethasone
  Combination effect on cell viability (figure legend): synergistic effect
[2]; [4]
  CI of Cpd. + 100 nM Dex: 2.71E−01
[2]; [5]
  CI of Cpd. + 100 nM Dex: 1.72E−01
[2]; [6]
  CI of Cpd. + 100 nM Dex: 1.73E−01
[2]; [7]
  CI of Cpd. + 100 nM Dex: 1.32E−01
[2]; [8]
  CI of Cpd. + 100 nM Dex: 1.23E−01
[2]; [9]
  CI of Cpd. + 100 nM Dex: 9.00E−03
[2]; [10]
  CI of Cpd. + 100 nM Dex: 1.00E−03
[2]; [11]
  CI of Cpd. + 100 nM Dex: 4.00E−03
[2]; [12]
  CI of Cpd. + 100 nM Dex: 3.00E−03
[2]; [13]
  Chemical 1 concentration in the combination at 50% growth inhibition: B (0.74) mM
  Combination Index (CI) at 50% inhibition: 0.050 ± 0.004
  Synergy call: Very strong
  Synergy Score: 18
[2]; in combination with Sicorten
  Chemical 1 concentration in the combination at 50% growth inhibition: B (0.45) mM
  Combination Index (CI) at 50% inhibition: 0.371 ± 0.003
  Synergy Score: 4
[2]; with Sicorten
  Combination effect on cell viability (figure legend): synergistic effect
[2]; with dexamethasone
  Combination effect on cell viability (figure legend): synergistic effect

## C[C@@H]1C[C@H]2[C@@H]3C[C@H](F)C4=CC(=O)C(Cl)=C[C@]4(C)[C@@]3(F)[C@@H](O)C[C@]2(C)[C@@]1(O)C(=O)CO [Sicorten, halometasone, reference compound]
[1]; in combination with Compound A
  Chemical 2 concentration in the combination at 50% growth inhibition: Sicorten (0.03) mM
[1]; in combination with Compound B
  Chemical 2 concentration in the combination at 50% growth inhibition: Sicorten (0.02) mM
[2]; in combination with Compound A
  Chemical 2 concentration in the combination at 50% growth inhibition: Sicorten (0.01) mM
[2]; in combination with Compound B
  Chemical 2 concentration in the combination at 50% growth inhibition: Sicorten (0.02) mM

## CCN1CCN(c2ccc(Nc3cc(N(C)C(=O)Nc4c(Cl)c(OC)cc(OC)c4Cl)ncn3)cc2)CC1 [Compound A, 3-(2,6-dichloro-3,5-dimethoxy-phenyl)-1-{6-[4-(4-ethyl-perpazin-1-yl)-phenylamino]-pyrimidin-4-yl}-1-methyl urea]
[1]; [4]
  CI of Cpd. + 100 nM Dex: 1.39E−01
[1]; [5]
  CI of Cpd. + 100 nM Dex: 5.00E−02
[1]; [6]
  CI of Cpd. + 100 nM Dex: 4.90E−02
[1]; [7]
  CI of Cpd. + 100 nM Dex: 1.50E−02
[1]; [8]
  CI of Cpd. + 100 nM Dex: 1.10E−02
[1]; [9]
  CI of Cpd. + 100 nM Dex: 3.00E−03
[1]; [10]
  CI of Cpd. + 100 nM Dex: 7.00E−03
[1]; [11]
  CI of Cpd. + 100 nM Dex: 5.90E−02
[1]; [12]
  CI of Cpd. + 100 nM Dex: 4.40E−02
[1]; [13]
  Chemical 1 concentration in the combination at 50% growth inhibition: A (0.03) mM
  Combination Index (CI) at 50% inhibition: 0.034 ± 0.003
  Synergy call: Very strong
  Synergy Score: 29
[1]; in combination with Sicorten
  Chemical 1 concentration in the combination at 50% growth inhibition: A (1.6) mM
  Combination Index (CI) at 50% inhibition: 0.282 ± 0.007
  Synergy call: Strong
  Synergy Score: 17
[1]; with Sicorten
  Combination effect on cell viability (figure legend): synergistic effect
[1]; with dexamethasone
  Combination effect on cell viability (figure legend): synergistic effect
[2]; [4]
  CI of Cpd. + 100 nM Dex: 6.10E−02
[2]; [5]
  CI of Cpd. + 100 nM Dex: 2.20E−02
[2]; [6]
  CI of Cpd. + 100 nM Dex: 9.00E−03
[2]; [7]
  CI of Cpd. + 100 nM Dex: 5.00E−03
[2]; [8]
  CI of Cpd. + 100 nM Dex: 1.00E−03
[2]; [9]
  CI of Cpd. + 100 nM Dex: 4.17E−05
[2]; [10]
  CI of Cpd. + 100 nM Dex: 1.25E−06
[2]; [11]
  CI of Cpd. + 100 nM Dex: 1.21E−06
[2]; [12]
  CI of Cpd. + 100 nM Dex: 1.43E−12
[2]; [13]
  Chemical 1 concentration in the combination at 50% growth inhibition: A (1.5) mM
  Combination Index (CI) at 50% inhibition: 0.077 ± 0.001
  Synergy call: Very strong
  Synergy Score: 35
[2]; in combination with Sicorten
  Chemical 1 concentration in the combination at 50% growth inhibition: A (4.2) mM
  Combination Index (CI) at 50% inhibition: 0.220 ± 0.006
  Synergy call: Strong
  Synergy Score: 10
[2]; with Sicorten
  Combination effect on cell viability (figure legend): synergistic effect
[2]; with dexamethasone
  Combination effect on cell viability (figure legend): synergistic effect
[3]
  Reduction by Dexamethasone of the concentration required to achieve 50% of inhibition of proliferation: at least a million fold

## CCN(CC)CCCCNc1ncc2cc(-c3cc(OC)cc(OC)c3)c(NC(=O)NC(C)(C)C)nc2n1 [Compound E, 1-tert-Butyl-3-[6-(3,5-dimethoxy-phenyl)-2-(4-diethylamino-butylamino)-pyrido[2,3-d]pyrimidin-7-yl]-urea, reference compound]
[1]; with dexamethasone
  Combination effect on cell viability (figure legend): synergistic effect
[2]; with dexamethasone
  Combination effect on cell viability (figure legend): synergistic effect

## C[C@@H]1C[C@H]2[C@@H]3CCC4=CC(=O)C=C[C@]4(C)[C@@]3(F)[C@@H](O)C[C@]2(C)[C@@]1(O)C(=O)CO [Dexamethasone, reference compound]
[1]; in combination with Compound A
  Chemical 2 concentration in the combination at 50% growth inhibition: (0.30) mM
[1]; in combination with Compound B
  Chemical 2 concentration in the combination at 50% growth inhibition: (0.30) mM
[2]; in combination with Compound A
  Chemical 2 concentration in the combination at 50% growth inhibition: (0.14) mM
[2]; in combination with Compound B
  Chemical 2 concentration in the combination at 50% growth inhibition: (0.32) mM
